Inconclusive results and toxic doses are left out.
System: BDF1 mice, L1210 leukemia sc, survival T/C
Test: NCI In Vivo Anticancer Drug Screen. Data for tumor model L1210 Leukemia (subcutaneous) in B6D2F1 (BDF1) mice
Conditions: endpoint: median survival time, higher = longer survival
Method in brief: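 Mice carrying transplanted tumors received test compounds, and survival or tumor size was measured. Values are the treated-group measurement (T) divided by that of the vehicle-treated control group (C).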

[1] = dose: 39.0 mg/kg/injection, schedule: Q01DX Z (sc), vehicle: saline
[2] = dose: 65.0 mg/kg/injection, schedule: Q01DX Z (sc), vehicle: saline
[3] = dose: 108.0 mg/kg/injection, schedule: Q01DX Z (sc), vehicle: saline
[4] = dose: 23.0 mg/kg/injection, schedule: Q01DX Z (sc), vehicle: methylcellulose (MC)
[5] = dose: 65.0 mg/kg/injection, schedule: Q01DX Z (sc), vehicle: methylcellulose (MC)
[6] = dose: 108.0 mg/kg/injection, schedule: Q01DX Z (sc), vehicle: methylcellulose (MC)
[7] = dose: 180.0 mg/kg/injection, schedule: Q01DX Z (sc), vehicle: methylcellulose (MC)

## COc1ccc2[nH]c3c(C)c4ccncc4c(C)c3c2c1
[1]
  T/C: 100 % of control
[2]
  T/C: 100 % of control
[3]
  T/C: 112 % of control
dose: 180.0 mg/kg/injection, schedule: Q01DX Z (sc), vehicle: saline
  T/C: 116 % of control
dose: 300.0 mg/kg/injection, schedule: Q01DX Z (sc), vehicle: saline
  T/C: 116 % of control

## O=c1[nH]c(=S)c2[nH]c(=O)[nH]c2[nH]1
dose: 3.0 mg/kg/injection, schedule: Q01DX Z (sc), vehicle: methylcellulose (MC)
  T/C: 100 % of control
dose: 5.0 mg/kg/injection, schedule: Q01DX Z (sc), vehicle: methylcellulose (MC)
  T/C: 100 % of control

## S=P(N1CCCCCC1)(N1CC1)N1CC1
dose: 4.7 mg/kg/injection, schedule: Q01DX Z (sc), vehicle: saline
  T/C: 100 % of control
dose: 7.8 mg/kg/injection, schedule: Q01DX Z (sc), vehicle: saline
  T/C: 111 % of control
dose: 8.4 mg/kg/injection, schedule: Q01DX Z (sc), vehicle: saline
  T/C: 111 % of control
dose: 13.0 mg/kg/injection, schedule: Q01DX Z (sc), vehicle: saline
  T/C: 100 % of control
dose: 14.0 mg/kg/injection, schedule: Q01DX Z (sc), vehicle: saline
  T/C: 111 % of control
dose: 21.6 mg/kg/injection, schedule: Q01DX Z (sc), vehicle: saline
  T/C: 111 % of control
dose: 23.0 mg/kg/injection, schedule: Q01DX Z (sc), vehicle: saline
  T/C: 111 % of control
dose: 36.0 mg/kg/injection, schedule: Q01DX Z (sc), vehicle: saline
  T/C: 116 % of control
[1]
  T/C: 122 % of control
dose: 60.0 mg/kg/injection, schedule: Q01DX Z (sc), vehicle: saline
  T/C: 166 % of control
[2]
  T/C: 116 % of control
dose: 100.0 mg/kg/injection, schedule: Q01DX Z (sc), vehicle: saline
  T/C: 161 % of control
[3]
  T/C: 155 % of control

## CCC(=O)O[C@H]1CC[C@H]2[C@@H]3CC[C@H]4CC(=O)[C@H](C)C[C@]4(C)[C@H]3CC[C@]12C
[4]
  T/C: 100 % of control
[5]
  T/C: 100 % of control
[6]
  T/C: 100 % of control
[7]
  T/C: 100 % of control

## Clc1ncnc2c1ncn2C1CCCO1 (configuration not stated)
dose: 8.4 mg/kg/injection, schedule: Q01DX Z (sc), vehicle: methylcellulose (MC)
  T/C: 100 % of control
dose: 14.0 mg/kg/injection, schedule: Q01DX Z (sc), vehicle: methylcellulose (MC)
  T/C: 100 % of control
[4]
  T/C: 100 % of control
dose: 39.0 mg/kg/injection, schedule: Q01DX Z (sc), vehicle: methylcellulose (MC)
  T/C: 100 % of control
[5]
  T/C: 100 % of control
[6]
  T/C: 100 % of control
[7]
  T/C: 100 % of control
dose: 300.0 mg/kg/injection, schedule: Q01DX Z (sc), vehicle: methylcellulose (MC)
  T/C: 110 % of control
dose: 500.0 mg/kg/injection, schedule: Q01DX Z (sc), vehicle: methylcellulose (MC)
  T/C: 100 % of control

## CS(=O)(=O)OCCCNCCCOS(C)(=O)=O
dose: 15.0 mg/kg/injection, schedule: Q01DX009 (sc), vehicle: saline
  T/C: 111 % of control
dose: 30.0 mg/kg/injection, schedule: Q01DX009 (sc), vehicle: saline
  T/C: 108 % of control
dose: 39.0 mg/kg/injection, schedule: Q04DX003 (ip), vehicle: saline
  T/C: 118 % of control
dose: 180.0 mg/kg/injection, schedule: Q04DX003 (ip), vehicle: saline
  T/C: 93 % of control

## CCCCCn1c(C)cc(/C=C\c2ccc3cc(C)ccc3[n+]2C)c1C
dose: 0.23 mg/kg/injection, schedule: Q01DX Z (sc), vehicle: methylcellulose (MC)
  T/C: 100 % of control
dose: 0.39 mg/kg/injection, schedule: Q01DX Z (sc), vehicle: methylcellulose (MC)
  T/C: 100 % of control
dose: 0.65 mg/kg/injection, schedule: Q01DX Z (sc), vehicle: methylcellulose (MC)
  T/C: 100 % of control
dose: 1.08 mg/kg/injection, schedule: Q01DX Z (sc), vehicle: methylcellulose (MC)
  T/C: 100 % of control
dose: 1.8 mg/kg/injection, schedule: Q01DX Z (sc), vehicle: methylcellulose (MC)
  T/C: 100 % of control
